Series [1] has as its system Mycobacterium tuberculosis. Nature of the series: Antibacterial activity against Mycobacterium tuberculosis H37Rv after 7 days by resazurin dye-based assay. In kind it is functional. Particulars: 168 h.
Series [2] concerns Mycobacterium tuberculosis. The experiment in a line: Antimycobacterial activity against Mycobacterium tuberculosis H37Rv over expressing InhA after 7 days by resazurin dye-based assay. It counts as functional. The following applies: 168 h. Background: Alamar Blue is a resazurin reagent that responds to reducing activity.
Series [3] has as its system Mycobacterium tuberculosis. Nature of the series: Antimycobacterial activity against Mycobacterium tuberculosis H37Rv transfected with pMV261 empty vector after 7 days by resazurin dye-based assay. In kind it is functional. The following applies: 168 h.
Series [4] is described as follows: Stability in Middlebrook 7H9 medium at 10 ug/ml after 7 days relative to control. It counts as physicochemical. Particulars: read-out: Stability.

In brackets after ≈: the same amount, converted by molar mass.

As a reminder, the MIC is the lowest concentration that inhibits growth of the organism. For `C[C@H]1OC(=O)[C@@H](CO)OC(=O)[C@H](C)[C@H](O)[C@H](Cc2cccnc2)NC(=O)[C@H]1NC(=O)c1ncccc1O`, the MIC in series [1] was determined as 96.8 µM (≈ 50 µg/mL).
The same measure, in the same setting: as for `CC[C@@H](C)[C@H]1OC(=O)[C@H](C)[C@H](O)[C@H](Cc2cccnc2)NC(=O)[C@@H](NC(=O)c2ncccc2O)[C@@H](C)OC1=O`, the figure is 1.5 µM (≈ 0.814 µg/mL).
For the compound `C[C@H]1OC(=O)[C@@H](Cc2ccccc2)OC(=O)[C@H](C)[C@H](O)[C@H](Cc2cccnc2)NC(=O)[C@H]1NC(=O)c1ncccc1O`, the MIC is over 17.3 µM in series [2], 4.3 µM (≈ 2.48 µg/mL) in series [1] and 4.3 µM (≈ 2.48 µg/mL) in series [3].
Turning to `CC[C@H]1OC(=O)[C@H](C)[C@H](O)[C@H](Cc2cccnc2)NC(=O)[C@@H](NC(=O)c2ncccc2O)[C@@H](C)OC1=O`, the MIC in series [2] is over 19.1 µM; in series [1], 4.9 µM (≈ 2.52 µg/mL); in series [3], 4.9 µM (≈ 2.52 µg/mL).
With `CC/C(C)=C1\OC(=O)[C@H](C)[C@H](O)[C@H](Cc2cccnc2)NC(=O)[C@@H](NC(=O)c2ncccc2O)[C@@H](C)OC1=O` [PYRIDOMYCIN], the MIC in series [2] is 11.6 µM (≈ 6.25 µg/mL); in series [1] it was 0.55 to 3.05 µM (≈ 0.297 to 1.65 µg/mL); in series [3] it was 0.74 µM (≈ 0.4 µg/mL). Moreover, in series [4], the remaining at 168 h, 10 ug/ml is over 50%.
Consider `CC(C)[C@H]1OC(=O)[C@H](C)[C@H](O)[C@H](Cc2cccnc2)NC(=O)[C@@H](NC(=O)c2ncccc2O)[C@@H](C)OC1=O`, for which the MIC in series [2] is 24.2 µM (≈ 12.8 µg/mL); in series [1], 3.2 µM (≈ 1.69 µg/mL); in series [3] it was 3.1 µM (≈ 1.64 µg/mL).
As for `C[C@H](c1ccccc1)[C@H]1OC(=O)[C@H](C)[C@H](O)[C@H](Cc2cccnc2)NC(=O)[C@@H](NC(=O)c2ncccc2O)[C@@H](C)OC1=O`, it took 2.6 µM (≈ 1.54 µg/mL) to inhibit growth in series [1] (MIC).
Still for that read-out and setting: the value for `C[C@@H]1C(=O)N[C@H](C2CCCCC2)C(=O)O[C@H](C)[C@H](NC(=O)c2ncccc2O)C(=O)N[C@@H](Cc2cccnc2)[C@@H]1O` was 136 µM (≈ 77.1 µg/mL); that for `C[C@H]1OC(=O)[C@@H]([C@@H](C)c2ccccc2)OC(=O)[C@H](C)[C@H](O)[C@H](Cc2cccnc2)NC(=O)[C@H]1NC(=O)c1ncccc1O` was 2.6 µM (≈ 1.54 µg/mL).
Same read-out and setting: as for `CC(C)[C@@H]1OC(=O)[C@H](C)[C@H](O)[C@H](Cc2cccnc2)NC(=O)[C@@H](NC(=O)c2ncccc2O)[C@@H](C)OC1=O`, the figure is 26 µM (≈ 13.7 µg/mL); as for `C[C@H]1OC(=O)[C@H](C)[C@H](O)[C@H](Cc2cccnc2)NC(=O)[C@@H](NC(=O)c2ncccc2O)[C@@H](C)OC1=O`, 49.9 µM (≈ 25 µg/mL).
On the same count and under the same terms, as for `CC(C)[C@H]1NC(=O)[C@@H](C)[C@@H](O)[C@H](Cc2cccnc2)NC(=O)[C@@H](NC(=O)c2ncccc2O)[C@@H](C)OC1=O`, the figure is 94.6 µM (≈ 49.9 µg/mL); as for `CC[C@@H](C)[C@H]1NC(=O)[C@H](C)[C@H](O)[C@H](Cc2cccnc2)NC(=O)[C@@H](NC(=O)c2ncccc2O)[C@@H](C)OC1=O`, 185 µM (≈ 100 µg/mL).
Turning to `NNC(=O)c1ccncc1` [ISONIAZID], the MIC amounted to 37.3 µM (≈ 5.12 µg/mL) in series [2] and 1.2 µM (≈ 0.165 µg/mL) in series [3].
With `CC[C@H](C)[C@H]1OC(=O)[C@H](C)[C@H](O)[C@H](Cc2cccnc2)NC(=O)[C@@H](NC(=O)c2ncccc2O)[C@@H](C)OC1=O`, the MIC in series [2], in series [1] and in series [3] was 2.9 µM (≈ 1.57 µg/mL) in each case.
